Data as given in ChEMBL document CHEMBL1201862, “PubChem BioAssay data set” (2004).
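1) Cells in 96-well plates. 2) Compound, 48 h, 5 concentrations. 3) Linear interpolation between surrounding doses. 4) Unreached endpoint = highest concentration. Abbreviation: GI50, concentration required for 50% inhibition of growth.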 The source made the active and inactive calls. Rule as the data show it: active = GI50 up to about 1.1 µM and inactive = higher.

Legend:
Test in all cases: NCI anticancer screen, dose series, 48 h
HCT-15 = tested on: HCT-15
OVCAR-3 = tested on: OVCAR-3
SN12C = tested on: SN12C
SK-MEL-28 = tested on: SK-MEL-28
MOLT-4 = tested on: MOLT-4
IGROV-1 = tested on: IGROV-1
MDA-MB-435 = tested on: MDA-MB-435
KM12 = tested on: KM12
A498 = tested on: A498
CAKI-1 = tested on: CAKI-1
MDA-MB-231 = tested on: MDA-MB-231
SF-268 = tested on: SF-268
SF-539 = tested on: SF-539
NCI/ADR-RES = tested on: NCI/ADR-RES
A549 = tested on: A549
UACC-62 = tested on: UACC-62
SW-620 = tested on: SW-620
U-251 = tested on: U-251
HOP-92 = tested on: HOP-92
HL-60 = tested on: HL-60

Structure (SMILES): O=C(CC(=O)c1ccncc1)c1ccccc1
- GI50 (HCT-15): 35.9 µM
- GI50 (OVCAR-3): > 85.3 µM (inactive)
- GI50 (SN12C): 42.2 µM (inactive)
- GI50 (SK-MEL-28): > 100 µM (inactive)
- GI50 (MOLT-4): 38.1 µM (inactive)
- GI50 (IGROV-1): > 100 µM (inactive)
- GI50 (MDA-MB-435): > 100 µM (inactive)
- GI50 (KM12): > 100 µM (inactive)
- GI50 (A498): > 100 µM (inactive)
- GI50 (CAKI-1): > 100 µM (inactive)
- GI50 (MDA-MB-231): > 100 µM (inactive)
- GI50 (SF-268): 63.5 µM (inactive)
- GI50 (SF-539): 63.5 µM (inactive)
- GI50 (NCI/ADR-RES): 24.3 µM (inactive)
- GI50 (A549): > 100 µM (inactive)
- GI50 (UACC-62): 88.7 µM (inactive)
- GI50 (SW-620): 73.1 µM (inactive)
- GI50 (U-251): 49.7 µM (inactive)
- GI50 (HOP-92): > 87.1 µM (inactive)
- GI50 (HL-60): 1.01 µM (active)

Structure (SMILES): NC(CSS(=O)(=O)c1ccccc1)C(=O)O (stereo not given)
- GI50 (HCT-15): > 10 µM
- GI50 (OVCAR-3): > 10 µM (inactive)
- GI50 (SN12C): > 10 µM (inactive)
- GI50 (SK-MEL-28): > 10 µM (inactive)
- GI50 (MOLT-4): > 10 µM (inactive)
- GI50 (IGROV-1): > 10 µM (inactive)
- GI50 (MDA-MB-435): > 10 µM (inactive)
- GI50 (KM12): > 10 µM (inactive)
- GI50 (A498): > 10 µM (inactive)
- GI50 (CAKI-1): > 10 µM (inactive)
- GI50 (MDA-MB-231): > 10 µM (inactive)
- GI50 (SF-268): > 10 µM (inactive)
- GI50 (SF-539): > 10 µM (inactive)
- GI50 (NCI/ADR-RES): > 10 µM (inactive)
- GI50 (A549): > 10 µM (inactive)
- GI50 (UACC-62): > 10 µM (inactive)
- GI50 (SW-620): > 10 µM (inactive)
- GI50 (U-251): > 10 µM (inactive)
- GI50 (HOP-92): > 10 µM (inactive)
- GI50 (HL-60): > 10 µM (inactive)

Structure (SMILES): CCOC(=O)/C1=C(\C)N(Cc2ccccc2)C(=O)c2ccccc2C(=O)c2c(O)ccc(O)c21
- GI50 (HCT-15): > 100 µM
- GI50 (OVCAR-3): > 100 µM (inactive)
- GI50 (SN12C): > 100 µM (inactive)
- GI50 (SK-MEL-28): > 100 µM (inactive)
- GI50 (MOLT-4): > 100 µM (inactive)
- GI50 (IGROV-1): 34.7 µM (inactive)
- GI50 (MDA-MB-435): > 100 µM (inactive)
- GI50 (KM12): > 100 µM (inactive)
- GI50 (A498): > 100 µM (inactive)
- GI50 (CAKI-1): > 100 µM (inactive)
- GI50 (MDA-MB-231): > 100 µM (inactive)
- GI50 (SF-268): > 100 µM (inactive)
- GI50 (SF-539): > 100 µM (inactive)
- GI50 (NCI/ADR-RES): > 100 µM (inactive)
- GI50 (A549): > 100 µM (inactive)
- GI50 (UACC-62): > 100 µM (inactive)
- GI50 (SW-620): > 100 µM (inactive)
- GI50 (U-251): > 100 µM (inactive)
- GI50 (HOP-92): 48.4 µM (inactive)
- GI50 (HL-60): > 100 µM (inactive)

Structure (SMILES): CC[C@H](C)[C@H](NC(=O)N(CCC#N)CCN(CCN(C(=O)N[C@@H](Cc1ccccc1)C(=O)OC)c1ccccc1)C(=O)N[C@H](C(=O)OC)C(C)C)C(=O)OC
- GI50 (HCT-15): 21.8 µM
- GI50 (OVCAR-3): 17.4 µM (inactive)
- GI50 (SN12C): 25.6 µM (inactive)
- GI50 (SK-MEL-28): 15 µM (inactive)
- GI50 (MOLT-4): 4.57 µM (inactive)
- GI50 (IGROV-1): 19.1 µM (inactive)
- GI50 (MDA-MB-435): 16.6 µM (inactive)
- GI50 (KM12): 20.9 µM (inactive)
- GI50 (A498): 19.6 µM (inactive)
- GI50 (CAKI-1): 19.8 µM (inactive)
- GI50 (MDA-MB-231): 18 µM (inactive)
- GI50 (SF-268): 21.5 µM (inactive)
- GI50 (SF-539): 23.6 µM (inactive)
- GI50 (NCI/ADR-RES): 23.6 µM (inactive)
- GI50 (A549): 32.7 µM (inactive)
- GI50 (UACC-62): 11.5 µM (inactive)
- GI50 (SW-620): 21.4 µM (inactive)
- GI50 (U-251): 16.2 µM (inactive)
- GI50 (HOP-92): 6.24 µM (inactive)
- GI50 (HL-60): 0.879 µM (active)

Structure (SMILES): COc1cccc(Nc2nc(NNC(=O)Cc3ccccc3)nc(NNC(=O)c3ccncc3)n2)c1
- GI50 (HCT-15): 7.93 µM
- GI50 (OVCAR-3): > 100 µM (inactive)
- GI50 (SN12C): > 10 µM (inactive)
- GI50 (SK-MEL-28): > 100 µM (inactive)
- GI50 (MOLT-4): 78.7 µM (inactive)
- GI50 (IGROV-1): > 10 µM (inactive)
- GI50 (MDA-MB-435): 52.8 µM (inactive)
- GI50 (KM12): 71.3 µM (inactive)
- GI50 (A498): > 100 µM (inactive)
- GI50 (CAKI-1): > 10 µM (inactive)
- GI50 (MDA-MB-231): 8.55 µM (inactive)
- GI50 (SF-268): > 10 µM (inactive)
- GI50 (SF-539): > 10 µM (inactive)
- GI50 (NCI/ADR-RES): > 10 µM (inactive)
- GI50 (A549): > 10 µM (inactive)
- GI50 (UACC-62): 4.71 µM (inactive)
- GI50 (SW-620): 78.2 µM (inactive)
- GI50 (U-251): > 10 µM (inactive)
- GI50 (HOP-92): > 10 µM (inactive)
- GI50 (HL-60): 68.1 µM (inactive)

Structure (SMILES): CCSc1nn(-c2c3ccccc3nc3ccccc23)c(=S)s1
- GI50 (HCT-15): > 100 µM
- GI50 (OVCAR-3): > 100 µM (inactive)
- GI50 (SN12C): > 100 µM (inactive)
- GI50 (SK-MEL-28): > 100 µM (inactive)
- GI50 (MOLT-4): > 100 µM (inactive)
- GI50 (IGROV-1): > 100 µM (inactive)
- GI50 (MDA-MB-435): > 100 µM (inactive)
- GI50 (KM12): > 100 µM (inactive)
- GI50 (A498): > 100 µM (inactive)
- GI50 (CAKI-1): > 100 µM (inactive)
- GI50 (MDA-MB-231): > 100 µM (inactive)
- GI50 (SF-268): > 100 µM (inactive)
- GI50 (SF-539): > 100 µM (inactive)
- GI50 (NCI/ADR-RES): > 100 µM (inactive)
- GI50 (A549): > 100 µM (inactive)
- GI50 (UACC-62): > 100 µM (inactive)
- GI50 (SW-620): > 100 µM (inactive)
- GI50 (U-251): > 100 µM (inactive)
- GI50 (HOP-92): > 100 µM (inactive)
- GI50 (HL-60): > 100 µM (inactive)
